Data as given in patent publication US20160095843A1, “PYRAZOLOPYRROLIDINE DERIVATIVES AND THEIR USE IN THE TREATMENT OF DISEASE” (NOVARTIS AG, priority 2013, published 2016).
Where two headings read alike, the source gives them in different places.

Experiments:
K-562 cells = assay: Cell growth inhibition assay (CellTiter-Glo), K-562; assay type: cell-based, human
Experimental: (§1) Cell Growth Inhibition Assay
(§2) The human leukemia cell lines MV-4-11, THP-1 and K-562 were employed to characterize the effect of BET inhibitors on cellular proliferation and viability. Cells were obtained from the American Type Culture Collection (ATCC) and cultured at 37° C. in a humidified 5% CO2 incubator in the following media: MV-4-11: DMEM high glucose (Animed #1-26F01-I), 10% FCS (Animed #2-01F26-I), 4 mM L-Glutamine (Animed #5-10K50), 1 mM Sodium Pyruvate (Animed # G03625P), 1× Penicillin-Streptomycin (Animed # F12478P); K-562: Iscove's MEM (Animed #1-28F16-I), 10% FCS (Animed #2-01F26-I), 4 mM L-Glutamine (Animed #5-10K50), 1× Penicillin-Streptomycin (Animed # F12478P); THP-1: RPMI-1640 (Animed #1-41F01-I), 10% FCS (Animed #2-01F26-I), 2 mM L-Glutamine (Animed #5-10K50), 10 mM HEPES (Animed #5-31F100), 1 mM Sodium Pyruvate (Animed # G03625P), 1× Penicillin-Streptomycin (Animed # F12478P). The AML lines MV-4-11 and THP-1 are very sensitive to BET inhibitors and show massive cell death upon BET inhibition (Zuber et al., Nature, 478 (2011), 524-8). Compound-mediated suppression of cell proliferation/viability was assessed by quantification of cellular ATP levels using the CellTiter-Glo (CTG) reagent (Promega). Briefly, cells were seeded in 20 μl fresh medium into 384-well plates, followed by addition of 5 μL medium containing compound dilutions at 5-fold their final intended concentration. Dose-response effects were assessed by 3-fold serial dilutions of the test compound, starting at 10 μM. Following incubation of the cells for 4 days at 37° C. and 5% CO2, the effect of inhibitors on cell viability was quantified following addition of 20 μl CTG and luminescence quantification (integration time: 100 ms) as per vendor manual, using a correspondingly equipped Tecan M200 multi-mode platereader (TECAN, Switzerland). For data analysis, the assay background value determined in wells containing medium, but no cells, was subtracted from all data points. To enable differentiation of cytotoxic from cytostatic compounds, the number of viable cells is assessed relative to that observed at the time of compound addition using a separate cell plate (day 0). The effect of a particular test compound concentration on cell proliferation/viability is expressed as percentage of the background- and day 0-corrected luminescence reading obtained for cells treated with vehicle only (DMSO, 0.1% final concentration), which is set as 100%, whereas that luminescence reading for wells containing medium is set as −100%. Compound concentrations leading to half-maximal (1050) and total growth inhibition (TGI) were determined using standard four parameter curve fitting.

MV-4-11 cells = assay: Cell growth inhibition assay (CellTiter-Glo), MV-4-11; assay type: cell-based; settings: Homo sapiens, MV4-11
Experimental: as §1, §2

THP-1 cells = assay: Cell growth inhibition assay (CellTiter-Glo), THP-1; assay type: cell-based; settings: Homo sapiens
Experimental: as §1, §2

| SMILES | GI50 (K-562 cells; Homo sapiens, K562) [nM] | IC (TGI) (K-562 cells; Homo sapiens, K562) [nM] | GI50 (MV-4-11 cells) [nM] | IC (TGI) (MV-4-11 cells) [nM] | GI50 (THP-1 cells) [nM] | IC (TGI) (THP-1 cells) [nM] | IC (TGI) (K-562 cells) [nM] |
| --- | --- | --- | --- | --- | --- | --- | --- |
| COc1ncc(-n2nc(C)c3c2C(=O)N(c2cc(C)c(=O)n(C)c2)C3c2ccc(Cl)cc2)c(OC)n1 (racemic) [Example 52, 4-(4-chlorophenyl)-1-(2,4-dimethoxypyrimidin-5-yl)-5-(1,5-dimethyl-6-oxo-1,6-dihydropyridin-3-yl)-3-methyl-4,5-dihydropyrrolo[3,4-c]pyrazol-6(1H)-one] | 424 | > 10000 | 97.4 | 156 | 198 | 345 |  |
| Cc1nn(-c2ccnn2C)c2c1C(c1ccc(Cl)cc1)N(c1cc(C)c(=O)n(C)c1)C2=O (racemic) [Example 74, 4-(4-chlorophenyl)-5-(1,5-dimethyl-6-oxo-1,6-dihydropyridin-3-yl)-3-methyl-1-(1-methyl-1H-pyrazol-5-yl)-4,5-dihydropyrrolo-[3,4-c]pyrazol-6(1H)-one] | 459 | > 10000 | 95.8 | 103 | 142 | 327 |  |
| Cc1cc(N2C(=O)c3c(c(C4CC4)nn3C)C2c2ccc(Cl)cc2)cn2c(C)nnc12 (racemic) [Example 129, 4-(4-chlorophenyl)-3-cyclopropyl-5-(3,8-dimethyl-[1,2,4]triazolo[4,3-a]pyridin-6-yl)-1-methyl-4,5-dihydropyrrolo-[3,4-c]pyrazol-6(1H)-one] | 98.9 |  | 14.5 |  | 22.6 |  |  |
| COCc1nn(C2CC2)c2c1C(c1ccc(Cl)cc1)N(c1cc(C)c(=O)n(C)c1)C2=O (racemic) [Example 132, 4-(4-chlorophenyl)-1-cyclopropyl-5-(1,5-dimethyl-6-oxo-1,6-dihydropyridin-3-yl)-3-(methoxymethyl)-4,5-dihydropyrrolo[3,4-c]pyrazol-6(1H)-one] | 427 | > 10000 | 52.3 | 99.5 | 107 | 233 |  |
| Cc1c2c(nn1C)C(=O)N(c1cc(Cl)c(=O)n(C)c1)[C@@H]2c1ccc(Cl)cc1 [Example 7, (R)-5-(5-chloro-1-methyl-6-oxo-1,6-dihydropyridin-3-yl)-4-(4-chlorophenyl)-2,3-dimethyl-4,5-dihydropyrrolo-[3,4-c]pyrazol-6(2H)-one] | 632 |  | 71.1 |  | 103 |  |  |
| Cc1cc(N2C(=O)c3nn(C)cc3[C@H]2c2ccc(Cl)cc2)cn(C)c1=O [Example 16, (R)-4-(4-chlorophenyl)-5-(1,5-dimethyl-6-oxo-1,6-dihydropyridin-3-yl)-2-methyl-4,5-dihydropyrrolo-[3,4-c]pyrazol-6(2H)-one] | 624 |  | 75.8 |  | 101 |  |  |
| Cc1c2c(nn1C1CC1)C(=O)N(c1cc(Cl)c(=O)n(C)c1)[C@H]2c1ccc(Cl)cc1 [Example 18, (S)-5-(5-chloro-1-methyl-6-oxo-1,6-dihydropyridin-3-yl)-4-(4-chlorophenyl)-2-cyclopropyl-3-methyl-4,5-dihydropyrrolo[3,4-c]pyrazol-6(2H)-one] | > 10000 |  | 3330 |  | > 10000 |  |  |
| Cc1c2c(nn1C1CC1)C(=O)N(c1cc(Cl)c(=O)n(C)c1)[C@@H]2c1ccc(Cl)cc1 [Example 19, (R)-5-(5-chloro-1-methyl-6-oxo-1,6-dihydropyridin-3-yl)-4-(4-chlorophenyl)-2-cyclopropyl-3-methyl-4,5-dihydropyrrolo-[3,4-c]pyrazol-6(2H)-one] | 242 |  | 25.8 |  | 74.6 |  | >10000 |
| Cc1cc(N2C(=O)c3nn(C4CC4)c(C)c3[C@H]2c2ccc(Cl)cc2)cn(C)c1=O [Example 21, (R)-4-(4-chlorophenyl)-2-cyclopropyl-5-(1,5-dimethyl-6-oxo-1,6-dihydropyridin-3-yl)-3-methyl-4,5-dihydropyrrolo[3,4-c]pyrazol-6(2H)-one] | 266 |  | 22.3 |  | 36.6 |  |  |
